Measurements published in patent US11053204B2, “Pyrimidinyloxy benzene derivatives as herbicides” (FMC Corporation, priority 2015, dated 2021).

Tests used:
Assay type in all cases: in vivo
[1] = tested on: barnyardgrass (Echinochloa crus-galli); test: Test B flooded paddy test, plant response rating; details: 250 g ai/ha; Flood; scale of 0 to 100 where 0 is no effect and 100 is complete control; 13 to 15 days
How it was run: (§1)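 Under a constant 3 cm flood, test compounds went directly into the paddy water. Following 13 to 15 days of greenhouse growth, treated species and controls were compared by eye.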

[2] = tested on: ducksalad (Heteranthera limosa); test: Test B flooded paddy test, plant response rating; details: 250 g ai/ha; Flood; scale of 0 to 100 where 0 is no effect and 100 is complete control; 13 to 15 days
How it was run: as §1

rice (Oryza sativa) = test: Test B flooded paddy test, plant response rating; details: 250 g ai/ha; Flood; scale of 0 to 100 where 0 is no effect and 100 is complete control; 13 to 15 days
How it was run: as §1

[3] = tested on: sedge, umbrella (small-flower umbrella sedge, Cyperus difformis); test: Test B flooded paddy test, plant response rating; details: 250 g ai/ha; Flood; scale of 0 to 100 where 0 is no effect and 100 is complete control; 13 to 15 days
How it was run: as §1

[4] = tested on: chickweed (common chickweed, Stellaria media); test: Test C postemergence, plant response rating; details: for Chickweed plant response rating: scale 0 to 100 (0 no effect, 100 complete control)
Text: (§2) Seeds of plant species selected from blackgrass (Alopecurus myosuroides), ryegrass, Italian (Italian ryegrass, Lolium multiflorum), wheat (winter wheat, Triticum aestivum), galium (catchweed bedstraw, Galium aparine), corn (Zea mays), crabgrass, large (large crabgrass, Digitaria sanguinalis), foxtail, giant (giant foxtail, Setaria faberii), johnsongrass (Sorghum halepense), lambsquarters (Chenopodium album), morningglory (Ipomoea coccinea), nutsedge, yellow (yellow nutsedge, Cyperus esculentus), pigweed (Amaranthus retroflexus), ragweed (common ragweed, Ambrosia elatior), soybean (Glycine max), barnyardgrass (Echinochloa crus-galli), oilseed rape (Brassica napus), pigweed, palmer (palmer pigweed, Amaranthus palmeri), waterhemp (common waterhemp, Amaranthus rudis), velvetleaf (Abutilon theophrasti), kochia (Kochia scoparia), surinam grass (Brachiaria decumbens), nightshade (eastern black nightshade, Solanum ptycanthum), wild poinsettia (Euphorbia heterophylla), windgrass (Apera spica-venti), and oat, wild (wild oat Avena fatua), were planted into a blend of loam soil and sand or a silt loam soil and treated preemergence with test chemicals formulated in a non-phytotoxic solvent mixture which included a surfactant.
(§3) At the same time, plants selected from these crop and weed species and also chickweed (common chickweed, Stellaria media), buckwheat, wild (wild buckwheat, Polygonum convolvulus), wild mustard (Sinapis arvensis), field poppy (Papaver rhoeas), field violet (Viola arvensis), geranium, cutleaf (cutleaf geranium, Geranium dissectum), Canada thistle (Cirsium arvense), and speedwell (bird's-eye speedwell, Veronica persica), were planted in pots containing Sunshine Redi-Earth® planting medium comprising spaghnum peat moss, vermiculite, starter nutrients and dolomitic limestone and treated with postemergence applications of test chemicals formulated in the same manner. Plants ranged in height from 2 to 18 cm (1- to 4-leaf stage) for postemergence treatments. Treated plants and controls were maintained in a greenhouse for 13 to 15 d, after which time all species were compared to controls and visually evaluated. Plant response ratings, summarized in Table C, are based on a scale of 0 to 100 where 0 is no effect and 100 is complete control. A dash (-) response means no test result.

[5] = tested on: foxtail, giant (giant foxtail, Setaria faberii); test: Test C postemergence, plant response rating; details: for Foxtail, Giant plant response rating: scale 0 to 100 (0 no effect, 100 complete control)
Text: as §2, §3

[6] = tested on: morningglory (Ipomoea coccinea); test: Test C postemergence, plant response rating; details: for Morningglory plant response rating: scale 0 to 100 (0 no effect, 100 complete control)
Text: as §2, §3

Row | Structure (SMILES) | Plant response rating, Barnyardgrass [1] | Plant response rating, Ducksalad [2] | Plant response rating, Rice (rice (Oryza sativa)) | Plant response rating, Sedge, Umbrella [3] | Plant response rating, Chickweed ([4]; 16 g ai/ha, scale 0 to 100) | Plant response rating, Chickweed ([4]; 31 g ai/ha, scale 0 to 100) | Chickweed plant response rating ([4]; 62 g ai/ha) | Chickweed plant response rating ([4]; 125 g ai/ha) | Plant response rating, Foxtail, Giant ([5]; 16 g ai/ha, scale 0 to 100) | Plant response rating, Foxtail, Giant ([5]; 31 g ai/ha, scale 0 to 100) | Foxtail, Giant plant response rating ([5]; 62 g ai/ha) | Foxtail, Giant plant response rating ([5]; 125 g ai/ha) | Plant response rating, Morningglory ([6]; 16 g ai/ha, scale 0 to 100) | Plant response rating, Morningglory ([6]; 31 g ai/ha, scale 0 to 100) | Morningglory plant response rating ([6]; 62 g ai/ha) | Morningglory plant response rating ([6]; 125 g ai/ha) | Plant response rating, Chickweed ([4]; 16 g ai/ha, scale of 0 to 100) | Plant response rating, Foxtail, Giant ([5]; 16 g ai/ha, scale of 0 to 100) | Plant response rating, Morningglory ([6]; 16 g ai/ha, scale of 0 to 100)
1 | O=C(OCC(F)(F)F)c1c(Br)cccc1Oc1ncc(Cl)cn1 [Compound 35] | 0 | 50 | 0 | 60 | 5 | 40 | 45 | 50 | 5 | 10 | 10 | 20 | 40 | 50 | 60 | 60 | – | – | –
2 | O=C(CCC(F)(F)C(F)(F)F)c1c(Br)cccc1Oc1ncc(Cl)cn1 [Compound 110] | 25 | 75 | 25 | 90 | – | 95 | 95 | 90 | – | 10 | 25 | 25 | – | 50 | 60 | 50 | 60 | 10 | 30
3 | FC(F)(F)CCCCc1c(Cl)cccc1Oc1ncc(Cl)cn1 [Compound 137] | 75 | 95 | 50 | 95 | – | 55 | 90 | 100 | – | 20 | 40 | 35 | – | 15 | 20 | 20 | 70 | 20 | 10
